Holding throughout (experiment): CA inhibition assay, Verpoorte method at […] nm, Lineweaver-Burk
What all share (assay type): biochemical

One assay concerns the target T1, hCA IX (Homo sapiens, UniProt Q16790).
T1 construct: gene CA9; not described

In the next assay the target is T2, hCA II (Homo sapiens, UniProt P00918).
T2 construct: gene CA2

Another assay concerns the target T3, hCA XII (Homo sapiens, UniProt O43570).
T3 construct: gene CA12; not described

For the next assay, the target named is T4, hCA I (Homo sapiens, UniProt P00915).
T4 construct: gene CA1
T4 sequence (P00915 2-261): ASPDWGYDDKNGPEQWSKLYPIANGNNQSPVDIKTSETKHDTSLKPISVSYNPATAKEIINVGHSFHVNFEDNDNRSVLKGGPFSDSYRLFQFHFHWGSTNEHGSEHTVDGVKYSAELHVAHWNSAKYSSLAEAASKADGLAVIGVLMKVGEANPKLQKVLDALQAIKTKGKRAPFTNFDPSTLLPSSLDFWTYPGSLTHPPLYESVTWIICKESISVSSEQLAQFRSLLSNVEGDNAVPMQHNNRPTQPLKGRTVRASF

SMILES strings stand for the structures.

T3 sequence (O43570 25-354): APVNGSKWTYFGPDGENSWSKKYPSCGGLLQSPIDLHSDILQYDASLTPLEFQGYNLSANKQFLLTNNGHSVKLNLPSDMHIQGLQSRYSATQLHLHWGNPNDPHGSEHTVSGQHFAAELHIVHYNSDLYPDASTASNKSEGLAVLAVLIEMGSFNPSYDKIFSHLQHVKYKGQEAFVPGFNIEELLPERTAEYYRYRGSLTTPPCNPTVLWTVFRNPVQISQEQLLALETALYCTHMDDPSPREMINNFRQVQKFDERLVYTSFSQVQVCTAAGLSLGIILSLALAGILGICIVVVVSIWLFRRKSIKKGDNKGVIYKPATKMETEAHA

Take `CN1C(=O)C(=C2C(=O)Nc3ccc(Cl)cc32)SC1=Nc1ccc(S(N)(=O)=O)cc1` [c, EMAC 10020 c]: the inhibition constant Ki on hCA IX was 55.7 nM; at hCA II it was 8300 nM; on hCA XII, 865 nM; on hCA I, 958 nM.

For `CN1C(=O)C(=C2C(=O)Nc3ccc(F)cc32)SC1=Nc1ccc(S(N)(=O)=O)cc1` [d, EMAC 10020 d], the Ki on hCA IX came to 50.7 nM; at hCA II, 274 nM; at hCA XII it was 85 nM; at hCA I, 50.3 nM.

With `Cc1ccc2c(c1)C(=C1SC(=Nc3ccc(S(N)(=O)=O)cc3)N(C)C1=O)C(=O)N2` [l, EMAC 10020 l], the Ki on hCA IX is 3 nM; at hCA II, 79.1 nM; at hCA XII it was 440 nM; on hCA I, 87.6 nM.

Turning to `CN1C(=O)C(=C2C(=O)Nc3c(F)cccc32)SC1=Nc1ccc(S(N)(=O)=O)cc1` [m, EMAC 10020 m], the inhibitory constant (Ki) at hCA IX turned out to be 4.1 nM; at hCA II, 139 nM; on hCA XII, 90.7 nM; on hCA I, 44.3 nM.

`CN1C(=O)C(=C2C(=O)Nc3ccc(C(F)(F)F)cc32)SC1=Nc1ccc(S(N)(=O)=O)cc1` [n, EMAC 10020 n]: the Ki amounted to 2660 nM at hCA IX, 5720 nM at hCA II, 873 nM on hCA XII and 945 nM at hCA I.

For the compound `CN1C(=O)C(=C2C(=O)Nc3c(Br)cccc32)SC1=Nc1ccc(S(N)(=O)=O)cc1` [o, EMAC 10020 o], the Ki is 126 nM on hCA IX, 8780 nM at hCA II, 824 nM at hCA XII and 877 nM at hCA I.

The values are drawn from paper PMC6010117, “Isatin: a privileged scaffold for the design of carbonic anhydrase inhibitors” (Journal of Enzyme Inhibition and Medicinal Chemistry, 2016).
